Reference: US20260092057A1, “BCL-XL/BCL-2 DEGRADERS AND USES THEREOF” (Kymera Therapeutics, Inc., priority 2022, published 2026)
pIC50: −log10 of the molar value.

Key:
Type in all cases: cell-based
MOLT-4 cells = test: CTG (CellTiter-Glo) cell viability assay, MOLT-4; details: Homo sapiens, MOLT-4, 72 h, MOLT-4, 3 day; read-out: CTG Cell Viability Assay - MOLT-4 3 day: Average external-IC50
Procedure, shortened: (§1)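 Viability read by CellTiter-Glo luminescence after 3 days' compound exposure at 37 °C under 5% CO2, with 10,000 cells per well. Dosing was nine 1:3 dilutions starting at 10 µM, DMSO normalized to 0.2%; IC50 values come from three-parameter logistic curve fitting.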

BCL-XL = target: T1, BCL-XL (Homo sapiens, UniProt Q07817); test: BCL-XL degradation assay in MOLT-4 cells (ELISA, 6 h); details: for DC50: read-out: Bcl-xL ELISA in MOLT-4 degradation 6 h: External Abs-DC50
T1 construct: BCL-XL degradation results in MOLT-4 cells for compounds of the invention; endogenous in cells; host or cells: MOLT-4

Caki-2 cells = test: CTG (CellTiter-Glo) cell viability assay, Caki-2; details: Homo sapiens, CAKI-2, 72 h, Caki-2, 3-day; read-out: CTG Chempartner/PHA- Caki-2 3-day: Average external-IC50
Procedure, shortened: as §1

T1 sequence (Q07817 whole entry): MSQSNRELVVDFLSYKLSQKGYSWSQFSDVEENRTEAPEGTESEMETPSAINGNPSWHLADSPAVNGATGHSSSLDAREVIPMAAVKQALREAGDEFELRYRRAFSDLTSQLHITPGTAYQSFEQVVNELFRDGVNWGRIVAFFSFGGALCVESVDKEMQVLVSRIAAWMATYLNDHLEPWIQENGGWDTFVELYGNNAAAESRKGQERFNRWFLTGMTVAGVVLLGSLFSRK

| pIC50 (MOLT-4 cells) | Dmax (BCL-XL) | DC50 (BCL-XL) | SMILES | pIC50 (Caki-2 cells) |
| --- | --- | --- | --- | --- |
| 5.52 to 6.00 | 50 to 75% | 100 to 500 nM | Cc1ncsc1-c1ccc([C@H](C)NC(=O)[C@@H]2C[C@@H](O)CN2C(=O)[C@@H](NC(=O)CCCCCC(=O)N2CCN(CCCNc3ccc(S(=O)(=O)NC(=O)c4ccc(N5CCN(Cc6ccccc6-c6ccc(Cl)cc6)CC5)cc4Oc4cnc5[nH]ccc5c4)cc3S(=O)(=O)C(F)(F)F)CC2)C(C)(C)C)cc1 [I-51] | < 4.52 |
| > 7.00 | 50 to 75% | 10 to 100 nM | Cc1ncsc1-c1ccc([C@H](C)NC(=O)[C@@H]2C[C@@H](O)CN2C(=O)[C@@H](NC(=O)CCCCCCC(=O)N2CCN(CC[C@H](CSc3ccccc3)Nc3ccc(S(=O)(=O)NC(=O)c4ccc(N5CCC([C@@H](O)c6ccccc6-c6ccc(Cl)cc6)CC5)cc4)cc3S(=O)(=O)C(F)(F)F)CC2)C(C)(C)C)cc1 [I-120] | 4.52 to 5.00 |
| > 7.00 | > 75% | 10 to 100 nM | C#Cc1ccc([C@H](CO)NC(=O)[C@@H]2C[C@@H](O)CN2C(=O)[C@@H](NC(=O)CCCCCC(=O)N2CCN(CC[C@H](CSc3ccccc3)Nc3ccc(S(=O)(=O)NC(=O)c4ccc(N5CCN([C@@H](O)c6ccccc6-c6ccc(Cl)cc6)CC5)cc4)cc3S(=O)(=O)C(F)(F)F)CC2)C(C)(C)C)cc1 [I-135] | 4.52 to 5.00 |
| 6.00 to 7.00 | > 75% | 10 to 100 nM | Cc1ncsc1-c1ccc([C@H](C)NC(=O)[C@@H]2C[C@@H](O)CN2C(=O)[C@@H](NC(=O)CCCCCCN2CCN(CC[C@H](CSc3ccccc3)Nc3ccc(S(=O)(=O)NC(=O)c4ccc(N5CCC([C@@H](O)c6ccccc6-c6ccc(Cl)cc6)CC5)cc4)cc3S(=O)(=O)C(F)(F)F)CC2)C(C)(C)C)cc1 [I-118] | < 4.52 |
| 6.00 to 7.00 | 50 to 75% | 10 to 100 nM | Cc1ncsc1-c1ccc([C@H](C)NC(=O)[C@@H]2C[C@@H](O)CN2C(=O)[C@@H](NC(=O)CCCCCCCC(=O)N2CCN(CCCNc3ccc(S(=O)(=O)NC(=O)c4ccc(N5CCN(CC6=C(c7ccc(Cl)cc7)CC(C)(C)CC6)CC5)cc4Oc4cnc5[nH]ccc5c4)cc3S(=O)(=O)C(F)(F)F)CC2)C(C)(C)C)cc1 [I-86] | < 4.52 |

Continued, compound first:

| SMILES | pIC50 (MOLT-4 cells) | Dmax (BCL-XL) | DC50 (BCL-XL) | pIC50 (Caki-2 cells) |
| --- | --- | --- | --- | --- |
| Cc1ncsc1-c1ccc([C@H](C)NC(=O)[C@@H]2C[C@@H](O)CN2C(=O)[C@@H](NC(=O)CCCCCC(=O)N2CCN(CC[C@H](CSc3ccccc3)Nc3ccc(S(=O)(=O)NC(=O)c4ccc(N5CCCN(C)CC5)cc4)cc3S(=O)(=O)C(F)(F)F)CC2)C(C)(C)C)cc1 [I-41] | < 5.52 | < 50% | 500 to 1000 nM | < 4.52 |
| Cc1ncsc1-c1ccc(CNC(=O)[C@@H]2C[C@@H](O)CN2C(=O)[C@@H](NC(=O)C2(F)CC2)C(C)(C)C)c(OCCN2CCN(CC[C@H](CSc3ccccc3)Nc3ccc(S(=O)(=O)NC(=O)c4ccc(N5CCC6(CC5)CC(N5CCC[C@H]5c5ccccc5C5CC5)C6)cc4)cc3S(=O)(=O)C(F)(F)F)CC2)c1 [I-31, (2S,4R)—N-(2-(2-(4-((R)-3-((4-(N-(4-(2-((S)-2-(2-cyclopropylphenyl)pyrolidine-1-yl)-7-azaspiro[3.5]nonan-7-yl)benzoyl)sulfamoyl)-2-((trifluoromethyl)sulfonyl)phenyl)amino)-4-(phenylthio)butyl)piperazin-1-yl)ethoxy)-4 (4-methylthiazol-5-yl)benzyl)-1-((S)-2-(1-fluorocyclopropanecarboxamido)-3,3-dimethylbutanoyl)-4-hydroxypyrrolidine-2-carboxamide] | 6.00 to 7.00 | 50 to 75% | 10 to 100 nM | > 5.30 |
| Cc1ncsc1-c1ccc([C@H](C)NC(=O)[C@@H]2C[C@@H](O)CN2C(=O)[C@@H](NC(=O)CCCCCCCC(=O)N2CCN(Cc3ccc(-c4ccc(Cl)cc4)c(CN4CCN(c5ccc(C(=O)NS(=O)(=O)c6ccc(N[C@H](CCN(C)C)CSc7ccccc7)c([N+](=O)[O-])c6)cc5)CC4)c3)CC2)C(C)(C)C)cc1 [I-8] | 6.00 to 7.00 | 50 to 75% | 100 to 500 nM | < 4.52 |
| Cc1ncsc1-c1ccc([C@H](C)NC(=O)[C@@H]2C[C@@H](O)CN2C(=O)[C@@H](NC(=O)CCCCCC(=O)N2CCN(CC[C@H](CSc3ccccc3)Nc3ccc(S(=O)(=O)NC(=O)c4ccc(N5CCN(CC6=C(c7ccc(Cl)cc7)CC(C)(C)CC6)CC5)cc4)cc3S(=O)(=O)C(F)(F)F)CC2)C(C)(C)C)cc1 [I-42] | > 7.00 | > 75% | 10 to 100 nM | 5.00 to 5.30 |
| Cc1ncsc1-c1ccc([C@H](C)NC(=O)[C@@H]2C[C@@H](O)CN2C(=O)[C@@H](NC(=O)CCCCCCCCN2CCN(Cc3ccc(-c4ccc(Cl)cc4)c(CN4CCN(c5ccc(C(=O)NS(=O)(=O)c6ccc(N[C@H](CCN(C)C)CSc7ccccc7)c([N+](=O)[O-])c6)cc5)CC4)c3)CC2)C(C)(C)C)cc1 [I-9] | < 5.52 | < 50% | 500 to 1000 nM | < 4.52 |
| Cc1ncsc1-c1ccc([C@H](C)NC(=O)[C@@H]2C[C@@H](O)CN2C(=O)[C@@H](NC(=O)CCCCCC(=O)N2CCN(CCCNc3ccc(S(=O)(=O)NC(=O)c4ccc(N5CCC([C@@H](O)c6ccccc6-c6ccc(Cl)cc6)CC5)cc4Oc4cnc5[nH]ccc5c4)cc3S(=O)(=O)C(F)(F)F)CC2)C(C)(C)C)cc1 (single isomer, unassigned) [I-23] | 6.00 to 7.00 | < 50% | 500 to 1000 nM | < 4.52 |
